Values quoted from earlier work in patent publication US20140099366A1, “Composition Containing Two Anti-Dementia Drugs” (priority 2005, published 2014).
Counter-ions that a name gives are not always drawn.

Tested on: patients with moderate to severe Alzheimer-type dementia
Conditions: added to donepezil hydrochloride already administered, compared to placebo group

CC12CC3CC(C)(C1)CC(N)(C3)C2 [memantine hydrochloride]
cognitive ability and activities of daily living: improved
